What was measured:
Format in all cases: in vivo
[1] = system: Ipomoea hederacea (IPOHE); experiment: Pre-emergence herbicidal test; settings: 1000 g/ha, evaluated after 13 days
[2] = system: Lolium perenne (LOLPE); experiment: Pre-emergence herbicidal test; settings: 1000 g/ha, evaluated after 13 days
[3] = system: Lolium perenne (LOLPE); experiment: Post-emergence herbicidal test; settings: 1000 g/ha unless otherwise stated, evaluated after 13 days
Procedure, shortened: (§1)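 Scores on a five-point scale: 5=81-100%, 4=61-80%, 3=41-60%, 2=21-40%, 1=10-20%, 0=0% damage. These are assessed 13 days after spraying at 1000 g/ha unless stated.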

[4] = system: Setaria faberi (SETFA); experiment: Post-emergence herbicidal test; settings: 1000 g/ha unless otherwise stated, evaluated after 13 days
Procedure, shortened: as §1

[5] = system: Echinochloa crus-galli (ECHCG); experiment: Post-emergence herbicidal test; settings: 1000 g/ha unless otherwise stated, evaluated after 13 days
Procedure, shortened: as §1

[6] = system: Solanum nigrum (SOLNI); experiment: Post-emergence herbicidal test; settings: 1000 g/ha unless otherwise stated, evaluated after 13 days
Procedure, shortened: as §1

[7] = system: Ipomoea hederacea (IPOHE); experiment: Post-emergence herbicidal test; settings: 1000 g/ha unless otherwise stated, evaluated after 13 days
Procedure, shortened: as §1

[8] = system: Amaranthus retoflexus (AMARE); experiment: Post-emergence herbicidal test; settings: 1000 g/ha unless otherwise stated, evaluated after 13 days
Procedure, shortened: as §1

[9] = system: Echinochloa crus-galli (ECHCG); experiment: Pre-emergence herbicidal test; settings: 1000 g/ha, evaluated after 13 days
[10] = system: Solanum nigrum (SOLNI); experiment: Pre-emergence herbicidal test; settings: 1000 g/ha, evaluated after 13 days
[11] = system: Amaranthus retoflexus (AMARE); experiment: Pre-emergence herbicidal test; settings: 1000 g/ha, evaluated after 13 days
[12] = system: Setaria faberi (SETFA); experiment: Pre-emergence herbicidal test; settings: 1000 g/ha, evaluated after 13 days

CSc1cccc2c1c(=O)c(C(=O)O)nn2-c1ccc(OC(F)(F)F)cc1 [Compound P1, 5-methylsulfanyl-4-oxo-1-[4-(trifluoromethoxy)phenyl]cinnoline-3-carboxylic acid]
0 (0=0%): percentage damage caused to the plant, five-point scale, IPOHE [1] | percentage damage caused to the plant, five-point scale, LOLPE [2] | percentage damage caused to the plant, LOLPE (five-point scale) [3] | percentage damage caused to the plant, SETFA (five-point scale) [4] | percentage damage caused to the plant, ECHCG (five-point scale) [5] | percentage damage caused to the plant, SOLNI (five-point scale) [6] | percentage damage caused to the plant, IPOHE (five-point scale) [7] | percentage damage caused to the plant, AMARE (five-point scale) [8] | percentage damage caused to the plant, five-point scale, ECHCG [9] | percentage damage caused to the plant, five-point scale, SOLNI [10] | percentage damage caused to the plant, five-point scale, AMARE [11] | percentage damage caused to the plant, five-point scale, SETFA [12]

CS(=O)(=O)c1cccc2c1c(=O)c(C(=O)O)nn2-c1ccc(OC(F)(F)F)cc1 [Compound P2, 5-methylsulfonyl-4-oxo-1-[4-(trifluoromethoxy)phenyl]cinnoline-3-carboxylic acid]
4 (4=61-80%): percentage damage caused to the plant, LOLPE (five-point scale) [3] | percentage damage caused to the plant, SETFA (five-point scale) [4] | percentage damage caused to the plant, ECHCG (five-point scale) [5] | percentage damage caused to the plant, SOLNI (five-point scale) [6] | percentage damage caused to the plant, five-point scale, SOLNI [10]
1 (1=10-20%): percentage damage caused to the plant, five-point scale, IPOHE [1] | percentage damage caused to the plant, AMARE (five-point scale) [8] | percentage damage caused to the plant, five-point scale, AMARE [11]
5 (5=81-100%): percentage damage caused to the plant, five-point scale, LOLPE [2] | percentage damage caused to the plant, five-point scale, ECHCG [9] | percentage damage caused to the plant, five-point scale, SETFA [12]
2 (2=21-40%): percentage damage caused to the plant, IPOHE (five-point scale) [7]

COC(=O)c1nn(-c2ccc(OC(F)(F)F)cc2)c2cccc(S(C)(=O)=O)c2c1=O [Compound P3, methyl 5-methylsulfonyl-4-oxo-1-[4-(trifluoromethoxy)phenyl]cinnoline-3-carboxylate]
1 (1=10-20%): percentage damage caused to the plant, five-point scale, IPOHE [1] | percentage damage caused to the plant, SOLNI (five-point scale) [6] | percentage damage caused to the plant, IPOHE (five-point scale) [7] | percentage damage caused to the plant, AMARE (five-point scale) [8] | percentage damage caused to the plant, five-point scale, SOLNI [10] | percentage damage caused to the plant, five-point scale, AMARE [11]
4 (4=61-80%): percentage damage caused to the plant, five-point scale, LOLPE [2] | percentage damage caused to the plant, LOLPE (five-point scale) [3] | percentage damage caused to the plant, SETFA (five-point scale) [4] | percentage damage caused to the plant, ECHCG (five-point scale) [5] | percentage damage caused to the plant, five-point scale, ECHCG [9] | percentage damage caused to the plant, five-point scale, SETFA [12]

CSc1cccc2c1c(=O)c(C(=O)O)nn2-c1ccc(Cl)cc1 [Compound P4, 1-(4-chlorophenyl)-5-methylsulfanyl-4-oxo-cinnoline-3-carboxylic acid]
0 (0=0%): percentage damage caused to the plant, five-point scale, IPOHE [1] | percentage damage caused to the plant, five-point scale, LOLPE [2] | percentage damage caused to the plant, LOLPE (five-point scale) [3] | percentage damage caused to the plant, SETFA (five-point scale) [4] | percentage damage caused to the plant, ECHCG (five-point scale) [5] | percentage damage caused to the plant, SOLNI (five-point scale) [6] | percentage damage caused to the plant, IPOHE (five-point scale) [7] | percentage damage caused to the plant, AMARE (five-point scale) [8] | percentage damage caused to the plant, five-point scale, ECHCG [9] | percentage damage caused to the plant, five-point scale, SOLNI [10] | percentage damage caused to the plant, five-point scale, AMARE [11] | percentage damage caused to the plant, five-point scale, SETFA [12]

CS(=O)(=O)c1cccc2c1c(=O)c(C(=O)O)nn2-c1ccc(Cl)cc1 [Compound P5, 1-(4-chlorophenyl)-5-methylsulfonyl-4-oxo-cinnoline-3-carboxylic acid]
4 (4=61-80%): percentage damage caused to the plant, five-point scale, LOLPE [2] | percentage damage caused to the plant, LOLPE (five-point scale) [3] | percentage damage caused to the plant, SETFA (five-point scale) [4] | percentage damage caused to the plant, ECHCG (five-point scale) [5] | percentage damage caused to the plant, SOLNI (five-point scale) [6] | percentage damage caused to the plant, five-point scale, ECHCG [9] | percentage damage caused to the plant, five-point scale, SETFA [12]
1 (1=10-20%): percentage damage caused to the plant, five-point scale, IPOHE [1] | percentage damage caused to the plant, IPOHE (five-point scale) [7] | percentage damage caused to the plant, AMARE (five-point scale) [8] | percentage damage caused to the plant, five-point scale, SOLNI [10] | percentage damage caused to the plant, five-point scale, AMARE [11]
